Reference: article PMC6271731, “Multitarget Molecular Hybrids of Cinnamic Acids” (Molecules, 2014)
pIC50: −log10 of the molar value. Like-named read-outs stand apart in the source and are kept apart here. Marks after values point to notes of the source that are not given here.

Experiments:
[1] = Inhibition of linoleic acid lipid peroxidation (AAPH); settings: % inhibition at 100 μM; pH 7.4, 37 °C
Procedure: Production of conjugated diene hydroperoxide by oxidation of sodium linoleate in an aqueous dispersion is monitored at 234 nm. AAPH is used as a free radical initiator [12, 24]. Ten microlitres of the 16 mM sodium linoleate solution was added to the UV cuvette containing 930 μL of 0.05 M phosphate buffer, pH 7.4 prethermostated at 37 °C. The oxidation reaction was initiated at 37 °C under air by the addition of 40 mM AAPH solution (50 μL). Ten μL of the tested compounds were added in the mixture. Lipid oxidation was measured in the presence of the same level of DMSO. The rate of oxidation at 37 °C was monitored by recording the increase in absorption at 234 nm caused by conjugated diene hydroperoxides. The results were compared to the appropriate standard inhibitor trolox (63%) (Table 1).

[2] = Lipophilicity as RM values by RP-TLC; format: physicochemical; settings: methanol/water 70/30, 24 °C, average of at least five measurements
From the text: Since lipophilicity is a significant physicochemical property determining distribution, bioavailability, metabolic activity and elimination, we tried to determine experimentally the lipophilicity of the new substances by a RPTLC method as RM values (Table 1) and to compare them with the corresponding theoretically calculated clog p values in n-octanol-buffer. This is considered to be a reliable, fast and convenient method for expressing lipophilicity. Lipophilicity (Table 2), was theoretically calculated as Clog p values in n-octanol-buffer by the CLOGP Programme of Biobyte Corp..
Reversed phase TLC (RP-TLC) was performed on silica gel plates impregnated with 5% (v/v) liquid paraffin in light petroleum ether. The mobile phase was a methanol/water mixture (70/30, v/v). The plates were developed in closed chromatography tanks saturated with the mobile phase at 24 °C. Spots were detected under UV light. RM values were determined from the corresponding Rf values (from five individual measurements) using the equation RM = log [(1/Rf) − 1] (Table 1).

[3] = target: T1, soybean lipoxygenase (Glycine max, UniProt P08170); assay: Soybean lipoxygenase inhibition in vitro; format: biochemical; settings: for IC50: sodium linoleate 0.1 mM, tris buffer pH 9, room temperature, read-out: IC50 μM LOX Inh.
T1 construct: purchased Sigma Chemical, Co. (St. Louis, MO, USA)
T1 sequence (P08170 1-839): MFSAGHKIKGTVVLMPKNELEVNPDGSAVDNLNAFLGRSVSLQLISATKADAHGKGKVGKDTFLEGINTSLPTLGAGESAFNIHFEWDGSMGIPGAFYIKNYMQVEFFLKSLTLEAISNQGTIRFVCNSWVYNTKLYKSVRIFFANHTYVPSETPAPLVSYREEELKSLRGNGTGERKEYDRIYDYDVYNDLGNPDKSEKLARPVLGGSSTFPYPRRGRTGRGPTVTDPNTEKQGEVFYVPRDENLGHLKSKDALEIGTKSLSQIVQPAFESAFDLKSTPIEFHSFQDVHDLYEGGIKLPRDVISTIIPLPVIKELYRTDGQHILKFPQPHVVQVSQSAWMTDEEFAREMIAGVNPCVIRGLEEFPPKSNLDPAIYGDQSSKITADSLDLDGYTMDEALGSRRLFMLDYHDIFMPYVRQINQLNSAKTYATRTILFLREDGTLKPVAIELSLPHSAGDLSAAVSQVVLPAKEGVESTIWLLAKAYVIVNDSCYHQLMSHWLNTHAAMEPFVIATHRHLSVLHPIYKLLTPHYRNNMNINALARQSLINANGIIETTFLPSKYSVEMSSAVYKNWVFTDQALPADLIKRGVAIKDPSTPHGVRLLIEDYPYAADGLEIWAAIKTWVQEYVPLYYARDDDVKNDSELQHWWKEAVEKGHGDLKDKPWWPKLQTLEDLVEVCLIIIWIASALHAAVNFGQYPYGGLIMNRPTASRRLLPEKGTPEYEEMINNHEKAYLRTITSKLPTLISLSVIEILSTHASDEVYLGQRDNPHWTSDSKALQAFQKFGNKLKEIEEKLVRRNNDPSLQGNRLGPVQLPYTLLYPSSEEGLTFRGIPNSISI
Procedure: DMSO solution of the tested compound was incubated with sodium linoleate (0.1 mM) and 0.2 mL of soybean lipoxygenase solution (1/9 × 10^−4 w/v in saline) in buffer pH 9 (tris) and at room temperature. […] The results are given in Table 1 expressed as IC50 values or % inhibition at 100 μM.

[4] = target: T2, pancreatic bovine trypsin (Bos taurus, UniProt P00760); assay: Inhibition of trypsin induced proteolysis in vitro; format: biochemical; settings: bovine albumin substrate, pH 7.6, 37 °C; read-out: IC50 μM Trypsin Inh.
T2 construct: purchased Sigma Chemical, Co. (St. Louis, MO, USA)
T2 sequence (P00760 24-246): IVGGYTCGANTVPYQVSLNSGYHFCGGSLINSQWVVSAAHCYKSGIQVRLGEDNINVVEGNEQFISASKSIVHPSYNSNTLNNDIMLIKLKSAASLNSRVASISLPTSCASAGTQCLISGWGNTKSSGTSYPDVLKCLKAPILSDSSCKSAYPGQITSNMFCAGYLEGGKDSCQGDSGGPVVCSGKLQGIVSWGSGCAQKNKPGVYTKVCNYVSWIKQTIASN
From the text: All chemicals, solvents, chemical and biochemical reagents were of analytical grade and purchased from commercial sources (Merck, Merck KGaA, Darmstadt, Germany, Fluka Sigma-Aldrich Laborchemikalien GmbH, Hannover, Germany, Alfa Aesar, Karlsruhe, Germany and Sigma, St. Louis, MO, USA). Soybean lipoxygenase, pancreatic bovine trypsin, sodium linoleate, free radical DPPH and 2,2-azinobis-2-methyl-propanimidamine HCl (AAPH) were obtained from Sigma Chemical, Co. (St. Louis, MO, USA), carrageenin, type K, was commercially available. All starting materials were obtained from commercial sources and used without further purification.
The test was carried out according to a modified Kunitz method. Bovine albumin was used as substrate for trypsin. The reaction mixture consisted of 0.075 mg/mL trypsin (200 μL) and 780 μL of phosphate buffer pH 7.6 (including the tested compounds (20 μL in DMSO, final concentration 100 μM) preincubated at 37 °C for 20 min and then 1 mL of albumin (stock solution 6 g/100 mL in phosphate buffer 0.1 M, pH 7.6) was added and incubated at 37 °C for 30 min. After the incubation 1 mL of 5% trichloroacetic acid was added to the incubated solution to stop the enzyme’s reaction and allowed to set at room temperature for 1 h. Then the solution was filtered by filter paper and the absorption of the filtered solution was measured at 280 nm. Salicylic acid was used as a reference compound (Table 1).

[5] = test system: esterase; assay: In vitro esterase activity on hybrids; format: in vitro ADME; settings: 1 mM, phosphate buffer pH 7.8, 37 °C, 90 min and 24 h
Procedure: Representative hybrid molecules are subjected to an esterase activity in vitro. 100 μL of 1 mg/mL 0.001 N hydrochloric acid of esterase solution was added to 1,250 μL of phosphate buffer (0.1 M) pH 7.8 including the tested compounds (150 μL in DMSO, final concentration 1 mM) and incubated at 37 °C for 90 min. The incubated solution was allowed to set at room temperature. Then, the absorption was measured at 256 nm. The measurement was repeated after 24 h of incubation at 37 °C.

[6] = test system: carrageenin-induced rat paw oedema; assay: Inhibition of the carrageenin-induced rat paw oedema; format: in vivo, Fisher-344 rats; settings: 0.01 mmol/1 kg, i.p., 3.5 h after carrageenin
Procedure: (§1) Anti-inflammatory tests were conducted on Fisher-344 inbred rats of ca. 200 g body weight whereas antinociception and motor and sensory functions after sciatic nerve crash were performed on Wistar rats. Both sexes were used. Females pregnant were excluded. Each group was composed of 6 animals. The animals, which have been bred in our laboratory, were housed under standard conditions and received a diet of commercial food pellets and water ad libitum during the maintenance. Our studies were carried out in accordance with recognised guidelines on animal experimentation.
The tested compounds 0.01 mmol/kg body weight were suspended in water with few drops of Tween 80 and ground in a mortar before use. Controls received the liquid vehicle only. All the in vivo experiments were repeated at least in triplicate and were subjected to statistic analysis using the student’s t-test.
Oedema was induced in the right hind paw of Fisher 344 rats by the intradermal injection of 0.1 mL 2% carrageenin in water. Each group was composed of 6 animals which they were entirely fasted during the experiment period. The tested compounds 0.01 mmol/kg body weight, were given intraperitoneally simultaneously with the carrageenin injection. The rats were euthanized 3.5 h after carrageenin injection. The difference between the weight of the injected and not-injected paws was calculated for each animal. The change in paw weight was compared with that in control animals (treated with water) and expressed as a percent inhibition of the oedema (ICPE % values in Table 1). Indomethacin 0.01 mmol/kg was used as reference compound. ICPE % are the mean values from two different experiments with a standard error of the mean less than 10%.

[7] = test system: acetic acid-induced writhing; assay: Antinociceptive screen (writhing test); format: in vivo, Wistar rats; settings: Rattus norvegicus, ip, 0.5 h, i.p. 30 min before 0.6% acetic acid, writhes counted over 30 min, read-out: % ANA (in vivo analgesic-antinociceptive activity)
Procedure: as §1
[…] Controls received the liquid vehicle only. All the in vivo experiments were repeated at least in triplicate and were subjected to statistic analysis using the student’s t-test.
The writhing reflex was used. The test compounds were administered i.p. 30 min prior to the i.p. administration of 1 mL/100 g body weight of 0.6% acetic acid. […] After 5 min, the number of stretches characterized by repeated contractions of the abdominal musculature accompanied by extension of the hind limbs was counted every 5 min for the next 30 min. […] The % antinociceptive activity (a:a) was calculated as: % a:a = (n − n'/n) × 100 (a: a analgesic activity, n average number of writhes of control group, n' average number in the test group).

[8] = test system: sciatic nerve crush; assay: Sciatic Functional Index after sciatic nerve crush; format: in vivo, Wistar rats
From the text: SFI is the current standard for measuring functional recovery following rat sciatic nerve crush. Its calculation involves the measurement of wide-ranging relationships between feet and toes of the hindlimb of recovering animals. SFI values close to −100 indicate severe damage, while SFI values close to 0 indicate normal function. The treated rats improved their walk and the relationship between feet and toes of the crushed hindlimbs starting from day 14 to day 21.
One day prior to the surgery and the behavioral testing, Wistar rats were handled by the investigators and introduced to the testing environment for a brief period of time. Rats were anesthetized with chloral hydrate 4.5% (1 mL/100 g). […] After the exposure, the nerve was crushed once for 30 s at standardized force. The muscle was reapproximated and the skin incision was closed using 6 to 0 sutures. The examination of the loss of sensory and motor function in the operated limb established the crush completeness. Digits in the operated limb were pinched with a blunt forceps. Absence of foot withdrawal and vocalization was recorded as loss of sensory and motor function. Animals were placed under a heating lamp until they recovered from the anesthesia and they returned to their home cages.
The tested solutions were freshly prepared on surgery day (day 0).
[…] The day of the surgery is considered as day 0 [36, 37, 38].
In the present study, the plantar surfaces of the hindlimbs of the rats were impregnated with ink and then the animals were allowed to walk on a paper along a corridor, leaving footprints during walking.
A wooden corridor (1 m × 8 cm) with raised sidewalls was used. Two and a half white paper strips (40 × 7.5 cm) were placed along the corridor and were fixed with adhesive tape closely together and at the base and the sidewalls of the corridor. Each rat was trained to walk steadily along the corridor without stops until it made three at least successful efforts of continuous walking. The footprints were allowed to dry and were then converted into digital images using a computer and a high resolution scanner. The image processing was done by using the ImageJ. This is an open-source image analysis software created in 1997 by Rayne Rasband (National Institute of Health), widely used in medical applications, especially neuroscience, for measuring distances and surface and plotting the data. The footprints were analyzed as described by Bain et al. in measurements were included: • (i) print length (PL): distance from the heel to the third toe, • (ii) toe spread (TS) distance from the first to the fifth toe on both sides and • (iii) intermediate toe spread (ITS) the distance between the middle of the second and fourth toe
All measurements were taken both from the experimental (EPL, ETS, EIT) and the normal (NPL, NTS, NIT) side. The formula used to calculate SFI was the following: SFI = −38.3 (EPL − NPL)/NPL + 109.5 (ETS − NTS)/NTS + 13.3 (EIT − NIT)/NIT − 8.8

[9] = single i.p. dose 0.01 mmol/mL/kg, 8 h after surgery

Row | SMILES | AAPH % (% inhibition of lipid peroxidation) [1] | RM (±S.D.) [2] | pIC50 [3] | % ICPE (carrageenin-induced rat paw oedema inhibition) [6] | inhibition in vivo at 0.01 mmol/0.1 kg [7] | IC50 [3] | further results
1 | O=C(/C=C/c1cccc(Oc2ccccc2)c1)Oc1cc(=O)oc2ccccc12 [Compound 2b, (E)-2-Oxo-2H-chromen-4-yl 3-(3-phenoxyphenyl)acrylate] | 100% | −0.661± 0.008 | 4.00 |  |  |  | IC50 [4]: 100 µM; hydrolysis of the ester group by esterase [5]: hydrolyzed
2 | O=c1cc(O)c2ccccc2o1 [Compound 4-HC, 4-hydroxycoumarin, reference compound] | 100% |  |  | 62 * % |  |  | 
3 | O=C(O)/C=C/c1ccc(OCc2ccc(Br)cc2)cc1 [II] | 84% | −0.41 ± 0.026 | 4.18 | 41.6 * % | 67% |  | % ICPE (carrageenin-induced rat paw oedema inhibition) ([6]; listed as acid II): 44%
4 | O=C(O)/C=C/c1cccs1 [IV] | 60% | −0.56 ± 0.019 |  | 42.7 * % |  | 98 µM | 
5 | COc1ccc2c(c1)c(CC(=O)O)c(C)n2C(=O)c1ccc(Cl)cc1 [Indomethacin, reference compound] |  |  |  | 47 * % |  |  | % ICPE (carrageenin-induced rat paw oedema inhibition) ([6]; listed as indomethacin): 47%
6 | CC(=O)Nc1ccc(O)cc1 [Paracetamol, 4-acetamidophenol, reference compound] | 91% |  |  | 21 * % | 66% | 82 µM | % ICPE (carrageenin-induced rat paw oedema inhibition) ([6]; listed as paracetamol): 21%; SFI, Day before Crash ([8]; baseline before surgery and dosing): −12; SFI, Day-1 [8, 9]: −93.3; SFI, Day-7 [8, 9]: −93.3; SFI, Day-14 [8, 9]: −36; SFI, Day-21 [8, 9]: −18.5
